Assay results taken from patent US9550821B2, “Modulation of ghrelin levels and ghrelin/unacylated ghrelin ratio using unacylated ghrelin” (ALIZÉ PHARMA SAS, priority 2012, dated 2017).
Where no end group is shown, it is not given here.

What was measured:
[1] = test system: glucose, insulin and lipid metabolisms; conditions: cited from earlier work; for retention of UAG full length activity on glucose, insulin and lipid metabolisms: from U.S. Pat. Nos. 8,222,217 and 8,318,664; for smallest UAG fragment retaining UAG biological activity: from U.S. Pat. Nos. 8,222,217, 8,318,664 and WO/2008/145749
[2] = Overnight (15 hours) UAG infusion in T2DM subjects: serum UAG levels by MSD ELISA; format: in vivo, human; conditions: placebo 105.9±31.4
Experimental: (§1) A continuous overnight (15 hours) infusion of two doses of UAG (3 μg UAG/kg/hr and 10 μg UAG/kg/hr) versus placebo in a cross-over model on the AG concentrations was performed in eight overweight subjects with type 2 diabetes. FIG. 1 depicts a schematic representation of the study protocol. Glucose and insulin responses to a standard breakfast meal (SBM) in the subjects and reasonable metabolic control were assessed.
Single-center, investigator initiated, double blind and placebo controlled randomized study. During the first visit medical history, medication use and vital signs of subjects were checked. Blood samples were also taken for chemistry and hematology analysis. […]
Infusions were performed at the local clinical research unit for 15 hours from 9 pm to […]. […] The dose was calculated based on the subject's weight. […]
Standard breakfast meal (SBM) consisted of: • 3 slices wheat bread; • 3 portions of margarine; • 2 slices of cheese (48% fat); • 1 portion of jam; • 1 cup of whole milk; and • 1 boiled egg; for a total of 714 kcal (17% proteins; 46% fat; and 37% carbohydrates). […] At each of the 3 visits, the following safety parameters were assessed: hemoglobin, hematocrit, platelet count, WBC count, RBC count, and differential and were determined using Sysmex XE 2100, Firma Sysmex, Ecustraat 11, 4879 NP Etten-Leur. […]

[3] = Safety evaluation during overnight UAG infusion in T2DM subjects; format: in vivo, human
Experimental: as §1
Standard breakfast meal (SBM) consisted of: • 3 slices wheat bread; • 3 portions of margarine; • 2 slices of cheese (48% fat); • 1 portion of jam; • 1 cup of whole milk; and • 1 boiled egg; for a total of 714 kcal (17% proteins; 46% fat; and 37% carbohydrates). […] At each of the 3 visits, the following safety parameters were assessed: hemoglobin, hematocrit, platelet count, WBC count, RBC count, and differential and were determined using Sysmex XE 2100, Firma Sysmex, Ecustraat 11, 4879 NP Etten-Leur. AST, ALT, alkaline phosphatase, total bilirubin, creatine phophokinase (CPK), lactate dehydrogenase (LDH), creatinine, urea, amylase, lipase, uric acid, glucose, cholesterol, LDL, HDL, triglycerides, sodium, potassium, calcium, chloride, protein and albumin are determined using the Hitachi Modular P800, Roche Transistorstraat 41, 1332 CK Almere. […] AG and UAG levels were assessed before the start of the overnight infusion, 10 minutes before the start and 30 minutes after the SBM. […]

[4] = test system: AG-induced food intake; experiment: AG-induced food intake in rats; format: in vivo, Sprague-Dawley rats; conditions: rat, i.p. 42 μg/kg together with AG 13 μg/kg; food intake at 30 min, 1 h, 2 h
Experimental: With respect to the experimental data presented in FIG. 8, Sprague-Dawley rats of 7 weeks of age, weighing between 275 g and 300 g, were fed a pellet diet ad libitum and were singly housed in plastic cage. The experiment was performed at 2.5 h after the onset of the light cycle in freely fed rats. The rates were i.p. injected simultaneously with vehicle plus vehicle, vehicle+AG (13 μg/kg) or cyclised UAG (6-13) (SEQ ID NO: 25) (42 μg/kg)+AG (13 μg/kg). Immediately after the completion of the i.p. injection in rats, the night-ad-libitum food was removed and replaced by 2 pellets for each animal, previously weighed, placed into the top of the cage. Food intake was calculated as the difference between the food weight before and after the feeding period at each time interval (30 min, 1 h, and 2 h). Cumulative food intake was calculated by summating the values of the different time periods.

Molecule: His-Gln-Arg (HQR; listed as Homo sapiens) [UAG (9-11)]
- retention of UAG full length activity on glucose, insulin and lipid metabolisms [1]: retain the activity of UAG full length

Molecule: SPEHQRVQ [UAG (6-13)]
- retention of UAG full length activity on glucose, insulin and lipid metabolisms [1]: retain the activity of UAG full length

Molecule: CC(C)C[C@H](NC(=O)[C@H](CCCCN)NC(=O)[C@H](C)NC(=O)[C@@H]1CCCN1C(=O)[C@@H]1CCCN1C(=O)[C@H](CCCCN)NC(=O)[C@H](CCCCN)NC(=O)[C@H](CO)NC(=O)[C@H](CCC(=O)O)NC(=O)[C@H](CCCCN)NC(=O)[C@H](CCCNC(=N)N)NC(=O)[C@H](CCC(N)=O)NC(=O)[C@H](CCC(N)=O)NC(=O)[C@@H](NC(=O)[C@H](CCCNC(=N)N)NC(=O)[C@H](CCC(N)=O)NC(=O)[C@H](Cc1cnc[nH]1)NC(=O)[C@H](CCC(=O)O)NC(=O)[C@@H]1CCCN1C(=O)[C@H](CO)NC(=O)[C@H](CC(C)C)NC(=O)[C@H](Cc1ccccc1)NC(=O)[C@H](CO)NC(=O)[C@H](CO)NC(=O)CN)C(C)C)C(=O)N[C@@H](CCC(N)=O)C(=O)N1CCC[C@H]1C(=O)N[C@@H](CCCNC(=N)N)C(=O)O [UAG]
- serum UAG levels before start of the SBM (mean±SD) ([2]; 3 mcg/kg·hr UAG overnight infusion): 10998 ± 2623 pg/mL
- serum UAG levels before start of the SBM (mean±SD) ([2]; 10 mcg/kg·hr UAG overnight infusion): 12085 ± 1616 pg/mL
- laboratory evaluations ([3]; 3 and 10 μg UAG/kg/hr overnight infusion): no significant changes in chemistry or parameters
- side effects reported by subjects ([3]; 3 and 10 μg UAG/kg/hr overnight infusion vs placebo): did not report more side effects than placebo

Molecule: EHQRVQ [UAG (8-13)]
- retention of UAG full length activity on glucose, insulin and lipid metabolisms [1]: retain the activity of UAG full length

Molecule: Ser-Pro-Glu-His-Gln-Arg-Val-Gln (cycl) (SPEHQRVQ; cyclised; (1)..(8) Cyclic; listed as Homo sapiens) [cyclic UAG (6-13)]
- effect on AG-induced food intake (orexigenic effect) [4]: able to counteract the orexigenic effects induced by AG

Molecule: Glu-His-Gln-Arg (EHQR; listed as Homo sapiens) [UAG (8-11)]
- smallest UAG fragment retaining UAG biological activity [1]: smallest UAG fragment to retain UAG activities
- retention of UAG full length activity on glucose, insulin and lipid metabolisms [1]: retain the activity of UAG full length

Molecule: Glu-His-Gln-Arg-Val (EHQRV; listed as Homo sapiens) [UAG (8-12)]
- retention of UAG full length activity on glucose, insulin and lipid metabolisms [1]: retain the activity of UAG full length

Molecule: His-Gln-Arg-Val (HQRV; listed as Homo sapiens) [UAG (9-12)]
- smallest UAG fragment retaining UAG biological activity [1]: smallest UAG fragment to retain the biological activity of UAG
- retention of UAG full length activity on glucose, insulin and lipid metabolisms [1]: retain the activity of UAG full length
